Laboratory results published in the supplement of paper PMC10307832.

Tests used:
Assay in all cases: relative viability (nuclei count vs DMSO), 5 days (fraction); higher = more cells survive
Midostaurin + Navitoclax = compound: CO[C@@H]1[C@H](N(C)C(=O)c2ccccc2)C[C@H]2O[C@]1(C)n1c3ccccc3c3c4c(c5c6ccccc6n2c5c31)C(=O)NC4 [Midostaurin] + CC1(C)CCC(c2ccc(Cl)cc2)=C(CN2CCN(c3ccc(C(=O)NS(=O)(=O)c4ccc(N[C@H](CCN5CCOCC5)CSc5ccccc5)c(S(=O)(=O)C(F)(F)F)c4)cc3)CC2)C1 [Navitoclax] (partner 0.5 µM)
How it was run: (§1)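 Lung cancer cell lines in 1536-well plates were dosed by pin tool the day after seeding, either with one drug alone or with a fixed anchor-drug dose plus five library-drug doses (not always all listed) in √10 steps. After 5 days, cells were fixed and their nuclei stained in one step (final 0.05% Triton X-100, 1% formaldehyde, 1 ug/ml Hoechst), then counted on 4× images. Relative viability is the nuclei count in treated wells divided by that in vehicle wells. Values are medians of duplicate plates.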

Midostaurin + Phenformin = compound: CO[C@@H]1[C@H](N(C)C(=O)c2ccccc2)C[C@H]2O[C@]1(C)n1c3ccccc3c3c4c(c5c6ccccc6n2c5c31)C(=O)NC4 [Midostaurin] + N=C(N)NC(=N)NCCc1ccccc1 [Phenformin] (partner 250 µM)
How it was run: as §1

Midostaurin + Vorinostat = compound: CO[C@@H]1[C@H](N(C)C(=O)c2ccccc2)C[C@H]2O[C@]1(C)n1c3ccccc3c3c4c(c5c6ccccc6n2c5c31)C(=O)NC4 [Midostaurin] + O=C(CCCCCCC(=O)Nc1ccccc1)NO [Vorinostat] (partner 1 µM)
How it was run: as §1

[1] = compound: COc1cc(-c2nn([C@H]3CC[C@H](N4CCN(C(C)=O)CC4)CC3)c3ncnc(N)c23)ccc1NC(=O)c1cc2ccccc2n1C + CCNC(=O)c1noc(-c2cc(C(C)C)c(O)cc2O)c1-c1ccc(CN2CCOCC2)cc1 [Luminespib] (partner 0.01 µM)
How it was run: as §1

[2] = compound: COc1cc(-c2nn([C@H]3CC[C@H](N4CCN(C(C)=O)CC4)CC3)c3ncnc(N)c23)ccc1NC(=O)c1cc2ccccc2n1C + Cc1nc(Nc2ncc(C(=O)Nc3c(C)cccc3Cl)s2)cc(N2CCN(CCO)CC2)n1 [Dasatinib] (partner 0.075 µM)
How it was run: as §1

Row | Cell Line | relative viability (Midostaurin + Navitoclax; first compound 0.01 µM) | relative viability (Midostaurin + Navitoclax; first compound 0.03162 µM) | relative viability (Midostaurin + Navitoclax; first compound 0.1 µM) | relative viability (Midostaurin + Navitoclax; first compound 0.3162 µM) | relative viability (Midostaurin + Phenformin; first compound 0.01 µM) | relative viability (Midostaurin + Phenformin; first compound 0.03162 µM) | relative viability (Midostaurin + Phenformin; first compound 0.1 µM) | relative viability (Midostaurin + Phenformin; first compound 0.3162 µM) | relative viability (Midostaurin + Vorinostat; first compound 0.01 µM) | relative viability (Midostaurin + Vorinostat; first compound 0.03162 µM) | relative viability (Midostaurin + Vorinostat; first compound 0.1 µM) | relative viability (Midostaurin + Vorinostat; first compound 0.3162 µM) | relative viability ([1]; first compound 0.0128 µM) | relative viability ([1]; first compound 0.04048 µM) | relative viability ([1]; first compound 0.128 µM) | relative viability ([1]; first compound 1.28 µM) | relative viability ([2]; first compound 0.0128 µM) | relative viability ([2]; first compound 0.04048 µM) | relative viability ([2]; first compound 0.128 µM) | relative viability ([2]; first compound 1.28 µM)
1 | HARA | 1.13 | 1.12 | 1.14 | 1.14 | 0.516 | 0.466 | 0.467 | 0.44 | 0.482 | 0.603 | 0.466 | 0.505 | 0.784 | 1.03 | 0.516 | 0.296 | 0.259 | 0.21 | 0.269 | 0.236
2 | NCI-H838 | 1.23 | 1.04 | 1.02 | 0.354 | 0.704 | 0.551 | 0.397 | 0.274 | 0.72 | 0.705 | 0.606 | 0.262 | 0.343 | 0.303 | 0.243 | 0.261 | 0.304 | 0.261 | 0.276 | 0.342
3 | NCI-H1755 | 0.966 | 0.927 | 0.828 | 0.627 | 0.631 | 0.621 | 0.609 | 0.592 | 0.748 | 0.809 | 0.715 | 0.783 | 0.501 | 0.418 | 0.48 | 0.308 | 0.452 | 0.386 | 0.43 | 0.433
4 | HCC-78 | 0.835 | 0.638 | 0.815 | 0.341 | 0.797 | 0.603 | 0.693 | 0.462 | 0.545 | 0.438 | 0.365 | 0.312 |  |  |  |  | 0.375 | 0.401 | 0.234 | 0.24
5 | IA-LM | 0.81 |  | 0.701 | 0.631 |  |  |  |  | 0.822 | 0.889 | 0.943 | 0.907 |  |  |  |  |  |  |  | 
6 | NCI-H322M | 1.18 | 1.19 | 1.31 | 1.26 | 0.831 | 0.673 | 0.811 | 0.875 | 0.877 | 0.849 | 0.994 | 1.28 | 0.887 | 0.935 | 0.756 | 0.483 | 0.262 | 0.256 | 0.234 | 0.253
7 | NCI-H3122 | 1.07 | 0.993 | 1.03 | 1.04 | 0.376 | 0.369 | 0.372 | 0.363 | 0.963 | 0.904 | 0.905 | 0.89 | 0.0938 |  | 0.0759 | 0.069 | 0.854 |  | 0.775 | 0.809
8 | COR-L23 | 0.99 | 0.966 | 0.87 | 0.925 | 0.446 | 0.411 | 0.418 | 0.388 | 0.456 | 0.311 | 0.276 | 0.205 | 0.713 | 0.667 | 0.688 | 0.736 | 0.503 | 0.529 | 0.462 | 0.665
9 | NCI-H650 |  |  |  |  | 0.403 | 0.413 | 0.437 | 0.322 | 0.431 | 0.474 | 0.875 | 0.412 | 0.731 | 0.861 | 0.941 | 0.754 | 0.475 | 0.592 | 0.462 | 0.456
10 | NCI-H1792 | 0.613 | 0.591 | 0.601 | 0.647 | 0.508 | 0.303 | 0.428 | 0.309 |  |  |  |  | 0.424 | 0.46 | 0.498 | 0.35 | 0.505 | 0.731 | 0.749 | 0.645
11 | NCI-H2342 |  |  |  |  | 0.657 | 0.561 | 0.587 | 0.643 | 0.741 | 0.764 | 0.836 | 0.831 | 0.723 | 0.717 | 0.87 | 0.61 | 0.312 | 0.309 | 0.335 | 0.323
12 | NCI-H1299 | 1.07 | 0.989 | 1.01 | 1.01 |  |  |  |  |  |  |  |  |  |  |  |  |  |  |  | 
13 | SW 900 |  |  |  |  | 0.608 | 0.451 | 0.653 | 0.395 | 0.402 | 0.502 | 0.52 | 0.458 | 0.178 | 0.175 | 0.184 | 0.159 | 0.616 | 0.707 | 0.487 | 0.578
14 | NCI-H1648 |  |  |  |  |  |  |  |  | 0.534 |  |  | 0.497 |  |  |  |  |  |  |  | 
15 | NCI-H522 |  |  |  |  | 0.596 | 0.706 | 0.655 | 0.753 | 0.862 | 1.18 | 0.827 | 1.03 | 1.25 | 1.21 | 1.3 | 0.971 | 0.794 | 0.843 | 0.809 | 0.897
16 | HCC-366 | 1.07 | 1.16 | 1 | 1.06 | 0.597 | 0.528 | 0.689 | 0.615 | 0.364 | 0.306 | 0.308 | 0.0688 |  |  |  |  | 0.711 | 0.517 | 0.667 | 0.607
17 | A549 | 1.2 | 1.08 | 1.08 | 0.77 | 0.139 | 0.126 | 0.166 | 0.209 |  |  |  |  |  |  |  |  |  |  |  | 
18 | NCI-H661 |  |  |  |  | 0.279 | 0.286 | 0.261 | 0.311 | 0.777 | 0.72 | 0.792 | 0.739 | 0.901 | 1.08 | 0.948 | 0.946 | 0.923 | 0.765 | 0.829 | 0.94
19 | NCI-H1563 |  |  |  |  | 0.693 | 0.672 | 0.697 | 0.682 |  |  |  |  | 0.535 | 0.55 | 0.525 | 0.5 | 0.481 | 0.484 | 0.532 | 0.488
20 | ABC-1 |  |  |  |  | 0.23 | 0.242 | 0.233 | 0.228 | 1.23 | 1.37 | 1.08 | 0.996 | 0.546 | 0.612 |  | 0.332 | 0.613 | 0.505 | 0.542 | 0.688
21 | LCLC-103H |  |  |  |  | 0.347 | 0.309 | 0.359 | 0.366 | 0.824 | 0.717 | 0.806 | 0.792 | 0.985 | 1.18 | 0.879 | 0.835 | 0.538 | 0.472 | 0.41 | 0.449
